Tests used:
[1] = tested on: inducible nitric oxide synthetase (iNOS); parameters: inducible nitric oxide synthetase (iNOS): dose or concentration left out as unconfirmed; conditions: murine macrophages, cited from earlier work
[2] = tested on: inducible nitric oxide synthetase; conditions: rat mesangial cells; cited from earlier work
cancer cells = conditions: examined over 0.1-10 μM, FIG. 1
Description: It is recognized that the induction of MMPs is a key event in angiogenesis and metastatic tumor cell invasiveness.

tumor cells = conditions: 0.0001-0.1 μM TPEN, filters coated with collagen IV
Procedure: Chemotaxis evaluation was performed in a similar way to basement membrane invasion, with the exception that the filters were coated with […] collagen IV instead of Matrigel.

MMP-2 = MMP-2 (Homo sapiens, UniProt P08253)
MMP-2, sequence (P08253 110-660): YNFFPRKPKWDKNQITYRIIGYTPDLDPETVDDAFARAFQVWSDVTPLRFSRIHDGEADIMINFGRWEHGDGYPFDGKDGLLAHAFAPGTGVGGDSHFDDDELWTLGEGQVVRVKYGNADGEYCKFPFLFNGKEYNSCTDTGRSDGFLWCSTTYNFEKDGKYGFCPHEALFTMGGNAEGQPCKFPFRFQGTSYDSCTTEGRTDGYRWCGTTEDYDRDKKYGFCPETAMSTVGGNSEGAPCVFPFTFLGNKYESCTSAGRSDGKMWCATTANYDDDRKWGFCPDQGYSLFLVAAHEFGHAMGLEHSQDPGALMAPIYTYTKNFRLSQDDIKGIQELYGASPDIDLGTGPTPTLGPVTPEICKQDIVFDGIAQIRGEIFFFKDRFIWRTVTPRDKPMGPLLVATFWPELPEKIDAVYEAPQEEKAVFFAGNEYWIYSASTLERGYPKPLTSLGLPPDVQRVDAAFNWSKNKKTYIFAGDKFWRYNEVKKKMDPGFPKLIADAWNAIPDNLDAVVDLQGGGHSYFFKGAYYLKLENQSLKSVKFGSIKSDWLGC
Procedure: (§1) Sub-confluent cell cultures were incubated for 6-24 h in serum-free DMEM and the resulted supernatant were analyzed for collagenolytic activity. The collagenolytic activity was determined on a gelatin impregnated (1 mg/ml, Difco, Detroit, Mich.), SDS-PAGE 8% gel, with minor modifications. […] The gels were then incubated for 16 hours at 37° C. in 50 mM Tris, 0.2M NaCl, 5 mM CaCl2, 0.02% Brij 35 (w/v) at pH 7.6. At the end of the incubation period, the gels were stained with 0.5% Coomassie G 250 (Bio-Rad Richmond Calif.) in methanol/acetic acid/H2O (30:10:60). The intensity of the various bands was determined on a computerized densitometer (Molecular Dynamics type 300A).

MMP-9 = MMP-9 (Homo sapiens, UniProt P14780)
MMP-9, sequence (P14780 94-707): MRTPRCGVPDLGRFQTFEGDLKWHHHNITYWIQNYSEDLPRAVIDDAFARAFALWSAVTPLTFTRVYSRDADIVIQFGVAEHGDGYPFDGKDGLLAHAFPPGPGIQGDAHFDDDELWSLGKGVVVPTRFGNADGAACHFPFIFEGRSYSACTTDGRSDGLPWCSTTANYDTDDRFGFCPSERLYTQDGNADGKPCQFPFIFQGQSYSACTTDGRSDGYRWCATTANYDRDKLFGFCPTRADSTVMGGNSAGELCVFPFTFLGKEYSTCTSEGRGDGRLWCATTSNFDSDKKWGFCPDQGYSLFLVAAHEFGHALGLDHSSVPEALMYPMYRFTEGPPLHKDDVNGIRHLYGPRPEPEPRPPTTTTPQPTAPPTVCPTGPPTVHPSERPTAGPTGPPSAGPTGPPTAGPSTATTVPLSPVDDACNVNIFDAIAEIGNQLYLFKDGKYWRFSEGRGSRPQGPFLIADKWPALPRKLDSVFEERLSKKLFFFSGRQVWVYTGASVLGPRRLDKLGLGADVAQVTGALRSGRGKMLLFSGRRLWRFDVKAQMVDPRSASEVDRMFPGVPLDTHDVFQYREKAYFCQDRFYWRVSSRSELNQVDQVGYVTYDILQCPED
Procedure: as §1

[3] = cited from earlier work
[4] = 6 hours of incubation, HT1080, TPEN 0.001-0.1 micromolar, FIG. 4A
[5] = 24 hours of incubation, HT1080, FIG. 4B

In the case of `NC(=O)C1=C(O)C[C@@H]2C[C@@H]3Cc4cccc(O)c4C(=O)C3=C(O)[C@]2(O)C1=O` [COL-3, 6-demethyl-6-deoxy-4-dedimethylaminotetracycline], the nitric oxide production ([1]; COL-3 between 2.5 and 10 µg/mL, concentration-dependent) is listed as “inhibited”, the “inducible nitric oxide synthetase (iNOS)” value ([1]; COL-3 between 2.5 and 10, concentration-dependent) is listed as “inhibited” and the “inducible nitric oxide synthetase protein expression” value [2] is listed as “decrease”. For the same molecule, the nitric oxide production [2] was “decrease”.
In the case of `c1ccc(CN(CCN(Cc2ccccn2)Cc2ccccn2)Cc2ccccn2)nc1` [TPEN, NNN′N′-Tetrakis-(2-pyridyl-methyl)-ethylenediamine], the “concentration above which TPEN has a toxic effect” value (cancer cells) is reported as “above 0.1 μM”, the “chemotactic activity of the cells” value (tumor cells) is reported as “not affected” and the “MMP-2 activity, % from the control” value (MMP-2; [4]) is reported as 32%. For the same molecule, the “inhibition of MMP-2 activity after 24 hours” value (MMP-2; [5]) was “disappeared”, the “MMP-9 activity, % from the control” value (MMP-9; [4]) was 64% and the “inhibition of MMP-9 activity after 24 hours” value (MMP-9; [5]) was “disappeared”. For the same molecule, the Ion affinity ([3]; rank order of metal ions) was “Zn^2+ > Fe^2+ > Mn^2+ >> Ca^2+ > Mg^2+” and the metal binding ([3]; under physiological blood concentration) was “binds zinc, iron, and copper but does not bind magnesium and calcium”.

— patent US20070027064A1, “Pharmaceutical compositions for inhibiting metal ion dependent enzymatic activity and methods for the use thereof” (priority 2003, published 2007)
